Test results taken from patent EP0209274A2, “Furanone derivatives” (ELI LILLY AND COMPANY, priority 1985, dated 1987).

Columns and labels:
[1] = target: Pancreatic phospholipase A2 (Homo sapiens, UniProt P04054); assay: Phospholipase A2 (PLA2) Assay; assay type: biochemical; conditions: 30 µg/ml test compound; inhibition of 14C-free fatty acid formation
Experimental: The assay buffer contained 10 mM Tris-HCl buffer, pH 8.0, 100 mM NaCl, 1 mM CaCl2 and 1 mg/ml of bovine serum albumin. A toluene-ethanol (1:1 v/v) solution of phosphatidiylcholine, L-a-dipalmitoyl-(2-palmitoyl-1-^14C) obtained from New England Nuclear was evaporated to dryness in a flask under nitrogen and the assay buffer was added to give a substrate concentration of 9.0 x 10^-5M (specific activity = 27.7 mCi/mmol). The mixture was sonicated for 5 minutes in a Bransonic 220 Sonication Bath. Pancreatic phospholipase A2 (specific activity = 600 units/mg) was diluted with the assay buffer to give an enzyme concentration of 0.1 mg/ml. […] To initiate the enzyme reaction, 0.1 ml of the mixture containing the substrate was added to the enzyme solution and the reaction mixture was further incubated for 30 minutes at 37°C. The reaction was then terminated by the addition of 20 µl of 1M citric acid.
Fifty µl of the mixture was added to 10 ml of scintillation fluid [5.88 g of 2,5-diphenyl-oxazole and 118 mg of 1,4-bis(5-phenyloxazol-2-yl)benzene] dissolved in 650 ml of toluene and 350 ml of Triton X-100) and the radioactivity was determined in an Isocap/300 liquid scintillation counter (Searle Analytic Inc., Southfield, Michigan). Another 50 µl of the mixture was applied directly onto the spotting area of a silica gel plate (LK6D, Whatman, Clifton, N.J.) and subjected to thin layer chromatography in a solvent system of ethyl acetate:acetic acid:2,2,4-trimethylpentane:H20 (90:20:50:100, v/v/v). The silica gel on the plate was scraped in 1 cm sections, suspended in 5 ml of the Triton X-100 based scintillation fluid and the radioactivity was determined. Phosphatidylcholine remained at the origin while fatty acids migrated to a few centimeters (2-3 cm) below the solvent front. The percent of ^14C-free fatty acid formed with the test compound added was calculated as compared to the amount formed in control experiments where no test compound was added. […]

[2] = target: T1, fatty acid cyclooxygenase (Homo sapiens, UniProt P23219); assay: Fatty Acid Cyclooxygenase (FCO) Assay; assay type: biochemical; conditions: 30 µg/ml test compound; inhibition of formation of PGE2; enzyme from human platelets
T1 construct: Microsomes were prepared from 185 bags of human platelets; from tissue; host or cells: human platelets (solubilized microsomes, then electrofocusing and Sephadex G-200)
Experimental: Microsomes were prepared from 185 bags of human platelets (each bag containing the platelets from one pint of blood prepared using differential centrifugation procedures). The platelets from approximately 60 bags were prepared at one time. Platelet-rich plasma (500 g) was centrifuged at 10,000 x g for 20 minutes, and the platelet pellet was suspended in 100 ml of 0.1M. potassium phosphate buffer, pH 8.0, with a Teflon glass homogenizer and sonicated for 5.0 minutes with a Bronson Sonifier (Model 350) in a rosette flask cooled in ice water. Disrupted platelets were centrifuged 15 minutes at 10,000 x g. The supernatant was centrifuged at 100,000 x g for 90 minutes and the microsomal pellets were homogenized in 25 ml of 20% sucrose containing 1.0% Triton X-100 detergent. After 30 minutes at 4°C, the solubilized microsomes were centrifuged at 100,000 x g for 60 minutes. The yellow supernatant was removed and stored at -70°C.
The solubilized fatty acid cyclooxygenase was applied to a 440 ml electrofocusing column (LKB-8012) containing 1% phisolytes (Brinkman Instruments, Westburgh, NY), pH 2-11, with the cathode at the top of the column. The enzyme was layered onto the column at the appropriate time so that its sucrose concentration was equal to that of the column gradient. This was accomplished by checking the gradient concentration periodically with a sucrose hand refractometer. Electrofocusing was carried out for 16 hours with an initial voltage of 400 V and a final voltage of 900-1,000 volts. Fractions were collected (20 ml) and assayed for PGE2 formation. Active peak fractions were pooled and concentrated by ultrafiltration (XM 100A) to a volume of 3-5 ml.
Active fractions from electrofocusing were applied to a G-200 Sephadex column (2 cm x 46 cm) and eluted with 10 mM potassium phosphate buffer, pH 7.0, in 5 ml fractions. After assay, active fractions were pooled and concentrated to 1.0 ml by ultrafiltration (XM 100A), and kept frozen at -70°C.
Enzyme activity was determined by assaying for PGE2 formation by preincubating the enzyme with 10 mmol/l imidazole phosphate buffer, pH 8.0, 2 mmol/l epinephrine, 2 mmol/1 methemoglobin, and the test compound (30 pg/ml) in a total volume of 0.2 ml for one minute at 37°C. After preincubation, 5 mmol/1 ^14C-arachidonic acid were added and the mixture was incubated an additional 0.5 minutes at 37°C. The enzyme reaction was stopped by the addition of 20 µl of indomethacin (2 mg/ml) in alcohol.
The reaction mixture was spotted (50 pl) on a silica gel (LQ6D) plate and subjected to TLC. The solvent system consisted of chloroform-methanol-glacial acetic acid (90:5:5, v/v/v) and the relative mobilities were PGF2a = 0.235, and PGE2 = 0.47. The silica gel on the plate was scraped in 1 cm sections, suspended in 5 ml of the scintillation fluid [5.88 g of 2,5-diphenyl-oxazole and 118 mg of 1,4-bis(5-phenyloxazol-2-yl)benzene] dissolved in 650 ml of toluene and 350 ml of Triton X-100) and the radioactivity was determined in an Isocap/300 liquid scintillation counter (Searle Analytic, Inc., Southfield, MI). Another 50 µl of the mixture was added to 10 ml of the Triton X-100 based scintillation fluid, and the radioactivity was determined so that the amount of radioactivity recovery from the TLC plate could be ascertained. PGE2 formation for each test compound was determined as a percent of control experiments wherein no test compound was added. Data is expressed in Table I as the percent inhibition of formation of PGE2 at a test compound concentration of 30 pg/ml.

5-Lipoxygenase = target: T2, 5-Lipoxygenase (Cavia porcellus, UniProt A0A286X958); assay: 5-Lipoxygenase (5-LPO) Assay; assay type: biochemical, guinea pigs; conditions: inhibition of 5-HETE formation; supernatant of guinea pig PMNL sonicate; read-out: 5-LPO IC50 (µg/ml) (converted)
T2 construct: The PMNL suspension was disrupted by five ½-second pulse sonication; from tissue; host or cells: guinea pig peritoneal polymorphonuclear leukocytes (30,000 x g supernatant of the sonicate)
T2 sequence (A0A286X958 1-674): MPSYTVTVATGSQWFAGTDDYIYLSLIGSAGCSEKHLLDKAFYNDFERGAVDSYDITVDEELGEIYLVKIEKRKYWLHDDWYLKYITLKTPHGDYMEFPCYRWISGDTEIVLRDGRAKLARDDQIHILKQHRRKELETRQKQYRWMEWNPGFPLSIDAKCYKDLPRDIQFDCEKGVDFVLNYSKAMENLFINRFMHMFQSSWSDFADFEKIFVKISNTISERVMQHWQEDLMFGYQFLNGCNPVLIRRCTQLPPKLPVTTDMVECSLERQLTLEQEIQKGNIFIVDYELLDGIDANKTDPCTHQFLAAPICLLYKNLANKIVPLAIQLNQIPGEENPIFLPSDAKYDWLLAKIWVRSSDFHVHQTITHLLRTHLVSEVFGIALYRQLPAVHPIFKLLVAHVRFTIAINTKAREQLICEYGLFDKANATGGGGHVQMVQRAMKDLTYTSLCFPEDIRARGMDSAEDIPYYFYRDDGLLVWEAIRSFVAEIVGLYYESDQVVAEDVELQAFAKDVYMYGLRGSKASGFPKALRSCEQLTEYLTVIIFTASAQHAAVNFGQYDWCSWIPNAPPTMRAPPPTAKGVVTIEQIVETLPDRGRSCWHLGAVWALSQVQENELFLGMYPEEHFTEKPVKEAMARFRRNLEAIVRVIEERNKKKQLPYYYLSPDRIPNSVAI
Experimental: Ten milliliters of a 2% casein solution were injected intraperitoneally to guinea pigs weighing 250-300 gm. After 16-18 hours, the guinea pigs were killed by suffocation in a carbon dioxide chamber. The peritoneal cavity was infused with 70 ml of saline and 40-50 ml of the fluid were recovered from the cavity. After centrifugation, cell pellets were washed twice in Hank's balanced salt solution (HBSS) without calcium ion.
The cells were then suspended in 5 ml of sodium phosphate buffer, pH 7.1 containing 1 mM EDTA, and 0.1% gelatin. About 20-30 x 10^7 cells were obtained from one guinea pig.
The PMNL suspension was disrupted by five ½-second pulse sonication at the setting of 3 in a Branson Sonifier, Model 350, equipped with a microtip. The sonicates were combined and centrifuged at 30,000 x g for 10 minutes. The supernatant was kept frozen at -70°C until use.
. Enzyme activity was determined by assaying for 5-HETE formatiun by first incubating 0.2 ml of the supernatant obtained from the PMNL sonicate with the test compound, 1 mM CaCl2, 2 mM ATP, and 1 mM GSH for 5 minutes at 37°C. The mixture is treated with 5 pM ^14C-arachidonic acid and incubated at 37°C an additional 10 minutes. The enzyme reaction was then stopped by the addition of 10 µl of 1M citric acid and 10 µl of an alcohol solution containing 20 mg/ml each of indomethacin and butylated hydroxyanisole (BHA). The reaction mixture was spotted (50 µl) on a silica gel plate (Baker TLC plate S1250-PA-19C) and subjected to TLC in a solvent system of ethyl acetate/2,2,4-tri- methylpentane/glacial acetic acid/H20 (90:50:20:100).
The radioactivity of the arachidonic acid and its metabolites (5-HETE and LTB4) was visualized from a developed x-ray film which had been exposed to the TLC plate 1-2 days. The amount of 5-HETE formed was quanti- tated by scraping the silica gel area corresponding to the spot on the x-ray film, and the radioactivity determined in a Isocap/300 liquid scintillation counter (Searle Analytic, Inc.).
The percent inhibition of the formation of 5-HETE was determined for each concentration of test compound tested as compared to a control experiment wherein no test compound was added. The concentration and percent inhibition values were plotted on semi log paper and the concentration in which formation of 5-HETE is inhibited by 50% (ICso) was determined by interpolation.

T1 sequence (P23219 24-599): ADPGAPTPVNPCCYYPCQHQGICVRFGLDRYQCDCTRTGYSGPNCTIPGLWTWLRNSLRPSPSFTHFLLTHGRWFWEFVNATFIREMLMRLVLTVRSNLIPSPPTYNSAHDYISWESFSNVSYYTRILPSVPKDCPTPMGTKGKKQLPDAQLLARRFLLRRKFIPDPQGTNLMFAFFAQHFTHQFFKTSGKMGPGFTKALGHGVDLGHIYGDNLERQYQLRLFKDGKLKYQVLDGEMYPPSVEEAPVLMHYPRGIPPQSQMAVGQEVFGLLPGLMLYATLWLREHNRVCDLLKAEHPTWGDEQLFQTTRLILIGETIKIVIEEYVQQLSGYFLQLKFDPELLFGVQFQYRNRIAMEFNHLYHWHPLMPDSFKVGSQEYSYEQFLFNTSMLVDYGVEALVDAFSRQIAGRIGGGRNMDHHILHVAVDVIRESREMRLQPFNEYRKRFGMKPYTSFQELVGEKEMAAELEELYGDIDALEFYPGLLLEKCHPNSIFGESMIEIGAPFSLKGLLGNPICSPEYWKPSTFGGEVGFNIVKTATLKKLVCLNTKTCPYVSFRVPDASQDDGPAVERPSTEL
Chain of Pancreatic phospholipase A2 (P04054 23-148): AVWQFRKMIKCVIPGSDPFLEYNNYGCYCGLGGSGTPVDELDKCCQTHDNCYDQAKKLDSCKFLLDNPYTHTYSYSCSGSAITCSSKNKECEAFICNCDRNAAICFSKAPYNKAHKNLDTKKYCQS

SMILES	inhibition at 30 µg/mL [1]	inhibition at 30 µg/mL [2]	IC50 (5-Lipoxygenase)
C=CCCCCCCCC1=CC(=O)OC1O (stereo not drawn) [Example 7, 5-Hydroxy-4-(8-nonenyl)-2(5H)-furanone]	0%	23%	–
CCCCCCCC/C=C\CCCCCCCCCCC1=CC(=O)OC1O (stereo not drawn) [Example 10, (Z)-4-(11-eicosenyl)-5-hydroxy-2(5H)-furanone]	26%	25%	–
CCCCCC/C=C\CCCCCCCCC1=CC(=O)OC1O (stereo not drawn) [Example 8, (Z)-4-(9-hexadecenyl)-5-hydroxy-2(5H)-furanone]	36%	21%	–

The remaining lines, values ahead:

inhibition at 30 µg/mL [1]	inhibition at 30 µg/mL [2]	IC50 (5-Lipoxygenase)	SMILES
–	12%	8.87 µM	O=C1C=C(CCCCOc2ccccc2Cc2ccccc2)C(O)O1 (stereo not drawn) [Example 17, 5-Hydroxy-4-[4-(2-benzylphenoxy)butyl]-2(5H)-furanone]
0%	–	93 µM	CCCC/C=C\CCCCCCCCCCC1=CC(=O)OC1O (stereo not drawn) [Example 21, (Z)-4-(11-hexadecenyl)-5-hydroxy-2(5H)-furanone]
–	27%	9.6 µM	O=C1C=C(CCCCCOc2ccc3ccccc3c2)C(O)O1 (stereo not drawn) [Example 16, 5-Hydroxy-4-[5-(2-naphthalenyloxy)pentyl]-2(5H)-furanone]
